Test results as given in ChEMBL document CHEMBL1158449, “Hirtellanines A and B, a pair of isomeric isoflavonoid derivatives from Campylotropis hirtella and their immunosuppressive activities” (Bioorg Med Chem Lett, 2009).

Experiments:
Splenocyte [1] = assay: Selectivity index, CC50 for splenocytes to IC50 for concanavalin A-induced splenocyte proliferation; type: functional
Splenocyte [2] = assay: Selectivity index, CC50 for splenocyte to IC50 for LPS-induced splenocytes proliferation; type: functional
[3] = Cytotoxicity against splenocytes after 48 hrs by MTT assay; type: cell-based, Splenocyte
Splenocyte [4] = assay: Immunosuppressive activity in splenocytes assessed as inhibition of LPS-induced proliferation after 48 hrs by [3H]thymidine incorporation assay; type: functional, cell-based; details: Mus musculus
Splenocyte [5] = assay: Immunosuppressive activity in splenocytes assessed as inhibition of concanavalin A-induced proliferation after 48 hrs by [3H]thymidine incorporation assay; type: functional, cell-based; details: Mus musculus

SMILES	Ratio CC50/IC50 (Splenocyte [1])	Ratio CC50/IC50 (Splenocyte [2])	CC50 at 48 h [3] [µM]	IC50 (Splenocyte [4]) [µM]	IC50 (Splenocyte [5]) [µM]
C/C=C/C[C@@H](C)[C@@H](O)[C@H]1C(=O)N[C@@H](CC)C(=O)N(C)CC(=O)N(C)[C@@H](CC(C)C)C(=O)N[C@@H](C(C)C)C(=O)N(C)[C@@H](CC(C)C)C(=O)N[C@@H](C)C(=O)N[C@H](C)C(=O)N(C)[C@@H](CC(C)C)C(=O)N(C)[C@@H](CC(C)C)C(=O)N(C)[C@@H](C(C)C)C(=O)N1C [CYCLOSPORINE]	88	12.39	–	–	–
COc1c2c(cc3oc4oc5cc(O)c(O)cc5c4c(=O)c13)OC(C)(C)C=C2 [HIRTELLANINE A]	3.29	50.5	3.03	0.06	0.92
COc1c2c(cc3oc(=O)c4c5cc(O)c(O)cc5oc4c13)OC(C)(C)C=C2 [HIRTELLANINE B]	2.76	8.77	26.3	3	9.55
